# Columns and labels:
# human mGluR1 = target: T1, human mGluR1 (Homo sapiens, UniProt Q13255); assay: Multispan Allosteric Profiling panel, Ca2+ (Gqi5); type: cell-based
# T1 construct: host or cells: HEK293 co-expressing Gqi5
# rat mGluR3 = target: T2, rat mGluR3 (Rattus norvegicus, UniProt P31422); assay: [3H]LY341495 binding to membranes
# T2 construct: expressed in transfected cells; host or cells: inducible HEK-293 cell line (membranes)
# Experimental: Membranes were prepared from an inducible HEK-293 cell line expressing rat mGluR2 or mGluR3. Binding assay was adapted from Johnson et al.[29]. Briefly, [^3H]LY341495 (1.4 nM) was evaluated for binding in the presence or in the absence of orthosteric and allosteric ligands. […] Addition of 5–10 μg membrane protein initiated the incubation. After 45 min at room temperature, the incubation was terminated by rapid filtration followed by scintillation counting. Ki’s were calculated using 4-parameter curve fitting.
# Sprague-Dawley rats = assay: DOI-induced glutamate release in the medial prefrontal cortex (microdialysis); type: in vivo
# Experimental: Male Sprague-Dawley rats (320–350 g) were housed two per cage. Two days before the dialysis assay, they were anesthetized with chloral hydrate (400 mg/kg, ip, 10 ml/kg of body weight) and placed in a stereotaxic apparatus (David Kopf Instruments, Tujunga, CA, USA). Anesthesia was maintained throughout surgery as necessary with supplementary doses of chloral hydrate. Body temperature was monitored by a rectal probe and adjusted (37 ± 1 °C) by a homeothermic blanket. The skull and the dura were opened to allow the implantation of a guide cannula in the medial prefrontal cortex (PFC). The coordinates were […] to bregma, […] to the midline and […] the dural surface. A dental cement cap held the cannula in place, and three screws anchored the cap to the skull. The rats were individually housed post-surgery and allowed two days of recovery before the start of the experiment. On the day of the experiment, animals were placed in a microdialysis bowl, the cannula cap was removed, and a […] (CMA12, Carnegie Medicine AB, Stockholm, Sweden) was inserted into the guide cannula. The probe was perfused at a constant flow rate of 1 μl/min using a microinjection pump (CMA100; Carnegie Medicine AB) with a gassed Ringer’s solution containing (in mM): NaCl (145), KCl (2.7), CaCl2 (1.2), MgCl2 (1), Na2HPO4 (2.3), […]; pH 7.4. Microdialysis sampling started 120 min after probe placement into the PFC. The outlet of the probe was connected to an on-line derivatization system allowing direct analysis of dialysate samples collected every 15 min. […] CE experiments were performed on a P/ACE MDQ capillary electrophoresis system (Beckman Coulter, Villepinte, France) coupled to an external Zetalif fluorescence detector (Picometrics S.A., Toulouse, France). […] The emission intensity was measured at a wavelength of 490 nm. […] Dose-effect of SAR218645 was evaluated by comparing the area under the curve during the first 150 min after po injection of the drug or vehicle. […]
# Swiss mice = assay: Amphetamine-induced locomotor hyperactivity; type: in vivo
# Experimental: An actimeter device consisting of a cylinder (20 cm diameter, 9.5 cm height, Apelex, France) equipped with two perpendicular light beams located 1.5 cm above the floor was used. Mice from the transgenic batches (DAT^−/− and NMDA Nr1^neo−/−) were orally pretreated with either SAR218645 or vehicle and individually isolated in boxes for a period of 60 min. Animals were then placed in the actimeter device and locomotor activity (number of interrupted light beams) was recorded for a period of 30 or 60 min. Mice in which the expression of the dopamine transporter (DAT) was knocked out (i.e., the DAT^−/− mouse) have been proposed as a reliable model of the positive symptoms of schizophrenia. In these mice, dopamine levels in the synapse are dramatically elevated and these animals are hyperactive and agitated in behavioral tests. […] Immediately following amphetamine challenge, 30 min after MK-801 challenge, mice were placed in the actimeter devices and locomotor activity was recorded for a period of 30 (DAT^−/−) or 60 (NMDA Nr1^neo−/−) min.
# Statistical analyses were performed using SAS V8.2 software (SAS Institute, Cary, NC, USA). The number of light beam breaks (motility count) recorded for 30 or 60 min were analyzed using one-way ANOVAs using a fixed factor of challenge or genotype and complementary post hoc (Newman-Keuls) tests were performed. […]
# DAT−/− mice = assay: Spontaneous locomotor hyperactivity of transgenic mice; type: in vivo
# Experimental: (§1) An actimeter device consisting of a cylinder (20 cm diameter, 9.5 cm height, Apelex, France) equipped with two perpendicular light beams located 1.5 cm above the floor was used. Mice from the transgenic batches (DAT^−/− and NMDA Nr1^neo−/−) were orally pretreated with either SAR218645 or vehicle and individually isolated in boxes for a period of 60 min. Animals were then placed in the actimeter device and locomotor activity (number of interrupted light beams) was recorded for a period of 30 or 60 min. Mice in which the expression of the dopamine transporter (DAT) was knocked out (i.e., the DAT^−/− mouse) have been proposed as a reliable model of the positive symptoms of schizophrenia. In these mice, dopamine levels in the synapse are dramatically elevated and these animals are hyperactive and agitated in behavioral tests. NMDA Nr1^neo−/− mice express only 5 to 10% of normal levels of the NR1 subunit of the NMDA receptor[33], thus mimicking a hypo-glutamatergic state. […] As such, they have been proposed as an animal model of schizophrenia. […] As such, in our present experiments, a relatively moderate dose of amphetamine (2 mg/kg ip) or MK-801 (0.2 mg/kg, ip) was used to selectively induce similar hyperactivity, with no noticeable appearance of stereotyped behaviors in normal mice. For amphetamine or MK-801 antagonism experiments, male Swiss mice (20–30 g) were orally pretreated with SAR218645, haloperidol or vehicle, immediately individually isolated in a Plexiglas box, followed 30 min later by administration of vehicle, amphetamine or MK-801. Immediately following amphetamine challenge, 30 min after MK-801 challenge, mice were placed in the actimeter devices and locomotor activity was recorded for a period of 30 (DAT^−/−) or 60 (NMDA Nr1^neo−/−) min.
# (§2) Statistical analyses were performed using SAS V8.2 software (SAS Institute, Cary, NC, USA). The number of light beam breaks (motility count) recorded for 30 or 60 min were analyzed using one-way ANOVAs using a fixed factor of challenge or genotype and complementary post hoc (Newman-Keuls) tests were performed. Five to nine animals per group were used.
# NMDA Nr1neo−/− mice = assay: as above; type: in vivo
# Experimental: as §1, §2
# T1 sequence (Q13255 19-1194): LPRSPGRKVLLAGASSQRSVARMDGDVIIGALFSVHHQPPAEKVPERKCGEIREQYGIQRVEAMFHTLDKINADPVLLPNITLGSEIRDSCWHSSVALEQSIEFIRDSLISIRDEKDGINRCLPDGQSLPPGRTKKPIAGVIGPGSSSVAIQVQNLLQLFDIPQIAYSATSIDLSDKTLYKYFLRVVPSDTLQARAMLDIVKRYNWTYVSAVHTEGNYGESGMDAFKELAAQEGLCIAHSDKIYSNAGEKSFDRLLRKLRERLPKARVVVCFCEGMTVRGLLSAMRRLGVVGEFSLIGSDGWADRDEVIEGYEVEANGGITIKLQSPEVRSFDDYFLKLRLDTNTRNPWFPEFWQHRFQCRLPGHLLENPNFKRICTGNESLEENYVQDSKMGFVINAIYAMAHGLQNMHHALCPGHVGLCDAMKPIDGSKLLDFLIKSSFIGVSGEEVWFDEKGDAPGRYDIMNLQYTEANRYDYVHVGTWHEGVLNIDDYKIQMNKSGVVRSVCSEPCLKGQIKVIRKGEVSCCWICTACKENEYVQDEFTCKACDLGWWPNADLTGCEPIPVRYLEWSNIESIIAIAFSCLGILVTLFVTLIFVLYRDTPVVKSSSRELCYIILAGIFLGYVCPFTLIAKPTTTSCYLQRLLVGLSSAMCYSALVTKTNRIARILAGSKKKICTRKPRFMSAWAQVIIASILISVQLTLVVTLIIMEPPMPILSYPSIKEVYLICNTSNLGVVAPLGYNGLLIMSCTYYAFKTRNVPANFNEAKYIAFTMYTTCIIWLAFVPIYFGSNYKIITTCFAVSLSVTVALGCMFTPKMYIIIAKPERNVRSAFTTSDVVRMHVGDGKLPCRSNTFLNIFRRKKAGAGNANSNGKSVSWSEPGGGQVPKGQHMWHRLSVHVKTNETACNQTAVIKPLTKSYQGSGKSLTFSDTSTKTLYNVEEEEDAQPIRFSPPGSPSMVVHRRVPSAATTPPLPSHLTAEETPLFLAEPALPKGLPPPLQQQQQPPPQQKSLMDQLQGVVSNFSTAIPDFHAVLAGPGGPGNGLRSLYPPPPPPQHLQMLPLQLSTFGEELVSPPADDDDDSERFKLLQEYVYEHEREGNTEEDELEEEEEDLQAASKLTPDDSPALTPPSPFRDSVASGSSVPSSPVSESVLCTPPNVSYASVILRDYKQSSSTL
# T2 sequence (P31422 23-879): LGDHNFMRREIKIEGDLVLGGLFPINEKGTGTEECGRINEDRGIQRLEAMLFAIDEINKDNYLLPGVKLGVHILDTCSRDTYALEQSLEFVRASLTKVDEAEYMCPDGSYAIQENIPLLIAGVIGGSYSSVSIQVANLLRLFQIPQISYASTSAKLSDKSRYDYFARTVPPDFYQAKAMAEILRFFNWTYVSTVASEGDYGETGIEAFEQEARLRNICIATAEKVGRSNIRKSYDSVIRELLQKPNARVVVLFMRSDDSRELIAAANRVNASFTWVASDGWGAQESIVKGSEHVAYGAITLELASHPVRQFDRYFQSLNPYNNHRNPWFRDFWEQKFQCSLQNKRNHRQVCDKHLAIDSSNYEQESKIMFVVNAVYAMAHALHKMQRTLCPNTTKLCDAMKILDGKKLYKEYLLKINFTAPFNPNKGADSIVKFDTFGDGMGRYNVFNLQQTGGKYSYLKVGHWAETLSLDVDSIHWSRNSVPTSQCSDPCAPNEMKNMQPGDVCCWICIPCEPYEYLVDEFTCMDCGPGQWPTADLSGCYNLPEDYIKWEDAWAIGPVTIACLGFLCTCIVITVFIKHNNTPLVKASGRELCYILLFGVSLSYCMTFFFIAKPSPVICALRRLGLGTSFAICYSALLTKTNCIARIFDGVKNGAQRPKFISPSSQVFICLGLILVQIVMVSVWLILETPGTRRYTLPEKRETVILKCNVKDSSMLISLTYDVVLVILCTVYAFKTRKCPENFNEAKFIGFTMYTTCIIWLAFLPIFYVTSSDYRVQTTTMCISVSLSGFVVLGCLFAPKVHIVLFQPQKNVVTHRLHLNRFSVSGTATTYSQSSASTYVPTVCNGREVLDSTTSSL
smiles,measurement,setting,value
"CC1(C)CCc2cc(OC[C@@H]3Cn4ccc(=O)nc4O3)ccc21 [SAR218645, (S)-2-(1,1-dimethyl-indan-5-yloxymethyl)-2,3-dihydro-oxazolo[3,2-a]pyrimidin-7-one]",effect on glutamate-induced activation,human mGluR1; 10 μM SAR218645,no effect
same,calcium response to compound alone,human mGluR1; SAR218645 alone,did not elicit a calcium response
same,"effect on [3H]LY341495 binding, compound alone",rat mGluR3; applied alone,no effect
same,effect on glutamate-mediated inhibition of [3H]LY341495 binding,rat mGluR3; with glutamate,nor did the drug affect
same,effect on DOI-induced increase in extracellular glutamate (time-course),"Sprague-Dawley rats; 3 mg/kg po, 30 min before DOI 2.5 mg/kg sc",blocked significantly
same,effect on glutamate AUC during 150 min,"Sprague-Dawley rats; 30 mg/kg po, P < 0.05",reaching statistical significance
same,Minimal active dose,"Sprague-Dawley rats; dose-range 0.3–30, po, Sprague-Dawley rats",3 mg/kg
same,effect on locomotor activity,"Swiss mice; amphetamine 2 mg/kg ip, SAR218645 po",no effects
same,Minimal active dose,"Swiss mice; dose-range 0.1–10, po, Swiss mice",>10 mg/kg
same,effect on locomotor activity,"DAT−/− mice; DAT−/− mice, SAR218645 po",no effects
same,Minimal active dose,"DAT−/− mice; dose-range 3–10, po",>10 mg/kg
same,effect on locomotor activity,"NMDA Nr1neo−/− mice; NMDA Nr1neo−/− mice, SAR218645 po",no effects
same,Minimal active dose,"NMDA Nr1neo−/− mice; dose-range 1–10, po",>10 mg/kg
